How the values were obtained:
Assay in all cases: relative viability (nuclei count vs DMSO), 5 days (fraction); higher = more cells survive
TPCA-1 + OSI-027 = compound: C1=CC(=CC=C1C2=CC(=C(S2)NC(=O)N)C(=O)N)F [TPCA-1] + COc1cccc2cc(-c3nc([C@H]4CC[C@H](C(=O)O)CC4)n4ncnc(N)c34)[nH]c12 [OSI-027] (partner 0.5 µM)
Procedure, shortened: (§1)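 Lung cancer cell lines in 1536-well plates got either a single drug or a fixed anchor-drug dose together with five library-drug doses (not always all listed) in √10 steps, by pin tool, on the day after seeding. Nuclei were counted after 5 days, and relative viability is the treated-to-vehicle ratio of nuclei counts. Values are medians of duplicate plates.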

TPCA-1 + Olaparib = compound: C1=CC(=CC=C1C2=CC(=C(S2)NC(=O)N)C(=O)N)F [TPCA-1] + O=C(c1cc(Cc2n[nH]c(=O)c3ccccc23)ccc1F)N1CCN(C(=O)C2CC2)CC1 [Olaparib] (partner 8 µM)
Procedure, shortened: as §1

Lestaurtinib + Olaparib = compound: C[C@]12O[C@H](C[C@]1(O)CO)n1c3ccccc3c3c4c(c5c6ccccc6n2c5c31)CNC4=O [Lestaurtinib] + O=C(c1cc(Cc2n[nH]c(=O)c3ccccc23)ccc1F)N1CCN(C(=O)C2CC2)CC1 [Olaparib] (partner 8 µM)
Procedure, shortened: as §1

[1] = compound: C[C@]12O[C@H](C[C@]1(O)CO)n1c3ccccc3c3c4c(c5c6ccccc6n2c5c31)CNC4=O [Lestaurtinib] + CS(=O)(=O)N1CCN(Cc2cc3nc(-c4cccc5[nH]ncc45)nc(N4CCOCC4)c3s2)CC1 [Pictilisib] (partner 1 µM)
Procedure, shortened: as §1

Cell Line	relative viability (TPCA-1 + OSI-027; first compound 0.04 µM)	relative viability (TPCA-1 + OSI-027; first compound 0.1265 µM)	relative viability (TPCA-1 + OSI-027; first compound 0.4 µM)	relative viability (TPCA-1 + OSI-027; first compound 1.265 µM)	relative viability (TPCA-1 + OSI-027; first compound 4 µM)	relative viability (TPCA-1 + Olaparib; first compound 0.04 µM)	relative viability (TPCA-1 + Olaparib; first compound 0.1265 µM)	relative viability (TPCA-1 + Olaparib; first compound 0.4 µM)	relative viability (TPCA-1 + Olaparib; first compound 1.265 µM)	relative viability (TPCA-1 + Olaparib; first compound 4 µM)	relative viability (Lestaurtinib + Olaparib; first compound 0.005 µM)	relative viability (Lestaurtinib + Olaparib; first compound 0.01581 µM)	relative viability (Lestaurtinib + Olaparib; first compound 0.05 µM)	relative viability (Lestaurtinib + Olaparib; first compound 0.1581 µM)	relative viability (Lestaurtinib + Olaparib; first compound 0.5 µM)	relative viability ([1]; first compound 0.005 µM)	relative viability ([1]; first compound 0.01581 µM)	relative viability ([1]; first compound 0.05 µM)	relative viability ([1]; first compound 0.1581 µM)	relative viability ([1]; first compound 0.5 µM)
NCI-H1355	0.466	0.365	0.414	0.313	0.234	0.8	0.633	0.796	0.694	0.396	0.804	0.754	0.563	0.566	0.369	0.412	0.363	0.314	0.389	0.273
EKVX	0.806	0.671	0.771	0.626	0.586	0.963	–	0.837	0.568	0.727	0.941	–	0.947	1.07	0.641	0.518	0.461	0.442	0.571	0.387
NCI-H441	0.841	0.443	0.511	0.302	0.201	0.461	0.454	0.53	0.443	0.436	0.557	0.513	0.495	0.48	0.379	0.346	0.342	0.215	0.299	0.171
NCI-H1975	0.836	0.737	0.676	0.633	0.295	0.843	0.72	0.806	0.735	0.6	0.802	0.856	0.651	0.757	0.408	0.275	0.252	0.205	0.217	0.171
HCC-78	0.411	0.357	0.385	0.335	0.337	0.917	0.844	0.892	1.01	0.493	0.843	0.835	0.765	0.566	0.385	0.19	0.225	0.203	0.136	0.169
NCI-H2085	0.978	0.689	0.731	0.462	0.354	–	0.74	0.738	0.839	0.683	0.804	0.755	0.835	0.935	0.84	0.482	0.474	0.465	0.476	0.49
H3255	0.674	0.578	0.592	0.463	0.483	0.577	0.542	0.536	0.527	0.507	0.563	0.535	0.54	0.525	0.397	0.5	0.393	0.388	0.277	0.164
NCI-H2087	0.554	0.444	0.537	0.414	0.207	0.711	0.588	0.541	0.546	0.364	0.589	0.725	0.559	0.673	0.309	0.872	0.745	0.53	0.689	0.322
LC-2-ad	0.971	0.753	0.813	0.744	0.407	0.689	0.783	0.688	0.745	0.578	0.82	0.823	0.832	0.55	0.28	0.369	0.333	0.204	0.167	0.113
PC-3 [JPC-3]	0.83	0.702	0.73	0.654	0.615	1.19	1.17	1.11	1.05	1	1.2	1.3	0.818	1.03	0.698	0.77	0.736	0.555	0.606	0.408
EBC-1	–	–	–	–	–	0.759	0.606	0.784	0.727	0.715	0.711	0.794	0.695	0.639	0.45	0.427	0.402	0.35	0.452	0.21
HCC-15	0.831	0.492	0.677	0.504	0.262	0.798	0.686	0.773	0.67	0.594	0.863	0.756	0.782	0.777	0.167	0.854	0.872	0.609	0.477	0.176
NCI-H1563	0.784	0.766	0.827	0.712	0.688	–	–	–	–	–	–	–	–	–	–	0.635	0.709	0.618	0.638	0.536
COR-L 105	0.646	0.602	0.707	0.649	0.396	0.712	0.7	0.665	0.752	0.697	0.64	0.685	0.792	0.579	0.498	0.488	0.405	0.288	0.263	0.212
NCI-H520	0.302	0.234	0.19	0.231	0.243	0.409	0.353	0.391	0.373	0.344	0.383	0.421	0.315	0.319	0.254	0.279	0.319	0.211	0.228	0.18
LU99A	0.325	0.297	0.322	0.232	0.258	0.257	0.277	0.293	0.223	0.168	0.211	0.25	0.161	0.196	0.142	0.298	0.312	0.253	0.205	0.179
NCI-H1666	0.856	0.788	0.851	0.883	0.865	0.767	0.673	0.71	0.757	0.768	0.779	0.799	0.871	0.976	0.827	0.46	0.486	0.39	0.358	0.388
NCI-H2170	0.789	0.641	0.716	0.584	0.396	0.668	0.568	0.65	0.508	0.439	0.551	0.596	0.407	0.45	0.206	0.285	0.257	0.304	0.293	0.223

Cell Line	relative viability (TPCA-1 + OSI-027; first compound 0.04 µM)	relative viability (TPCA-1 + OSI-027; first compound 0.1265 µM)	relative viability (TPCA-1 + OSI-027; first compound 0.4 µM)	relative viability (TPCA-1 + OSI-027; first compound 1.265 µM)	relative viability (TPCA-1 + OSI-027; first compound 4 µM)	relative viability (TPCA-1 + Olaparib; first compound 0.04 µM)	relative viability (TPCA-1 + Olaparib; first compound 0.1265 µM)	relative viability (TPCA-1 + Olaparib; first compound 0.4 µM)	relative viability (TPCA-1 + Olaparib; first compound 1.265 µM)	relative viability (TPCA-1 + Olaparib; first compound 4 µM)	relative viability (Lestaurtinib + Olaparib; first compound 0.005 µM)	relative viability (Lestaurtinib + Olaparib; first compound 0.01581 µM)	relative viability (Lestaurtinib + Olaparib; first compound 0.05 µM)	relative viability (Lestaurtinib + Olaparib; first compound 0.1581 µM)	relative viability (Lestaurtinib + Olaparib; first compound 0.5 µM)	relative viability ([1]; first compound 0.005 µM)	relative viability ([1]; first compound 0.01581 µM)	relative viability ([1]; first compound 0.05 µM)	relative viability ([1]; first compound 0.1581 µM)	relative viability ([1]; first compound 0.5 µM)
NCI-H522	0.744	0.721	0.843	0.837	0.643	0.834	0.504	0.642	0.643	0.556	0.741	0.617	0.665	0.617	0.429	–	–	–	–	–
LCLC-97TM1	0.584	0.323	0.486	0.411	0.283	0.301	0.237	0.374	0.346	0.216	–	0.456	0.299	0.185	0.188	0.197	0.163	0.138	0.139	0.125
NCI-H1299	–	–	–	–	–	0.947	0.963	0.941	0.932	0.939	0.994	1.06	0.814	0.89	0.721	0.558	0.502	0.222	0.305	0.133
NCI-H3122	1.29	0.837	0.954	0.854	0.517	0.627	0.605	0.594	0.588	0.439	0.862	0.637	0.552	0.598	0.5	0.671	0.798	0.628	0.45	0.423
NCI-H1395	0.745	0.631	0.738	0.585	0.592	0.496	0.426	0.494	0.519	0.494	0.498	0.494	0.426	0.406	0.369	0.597	0.542	0.536	0.463	0.405
NCI-H2009	0.773	0.647	0.623	0.406	0.327	0.697	0.733	0.626	0.753	0.817	0.589	0.754	0.577	0.843	0.473	0.795	0.691	0.43	0.54	0.149
NCI-H1651	0.756	0.612	0.648	0.741	0.544	0.192	0.177	0.185	0.171	0.134	0.166	0.199	0.17	0.169	0.147	0.59	0.736	0.309	0.542	0.286
HARA	0.811	0.454	0.627	0.355	0.131	0.884	0.765	1.09	0.742	0.656	1.03	0.899	0.441	0.886	0.237	0.356	0.451	0.334	0.187	0.179
NCI-H1944	0.482	0.398	0.416	0.368	0.318	0.482	0.424	0.436	0.425	0.336	0.437	0.479	0.34	0.419	0.344	0.352	0.313	0.313	0.305	0.248
NCI-H2347	0.442	0.483	0.43	0.346	0.518	0.565	0.54	0.607	0.578	0.545	0.567	0.639	0.581	0.529	0.607	0.692	0.996	0.485	0.472	0.532
Calu-6	–	–	–	–	–	0.671	0.57	0.553	0.539	0.511	0.572	–	0.457	0.388	0.252	0.875	0.751	0.357	0.308	0.142
NCI-H1703	–	–	–	–	–	0.443	0.39	0.433	0.398	0.424	0.437	0.285	0.145	0.212	0.123	0.254	0.217	0.201	0.173	0.132
NCI-H2342	0.566	0.537	0.536	0.555	0.514	0.487	0.351	0.44	0.423	0.325	0.44	0.432	0.439	0.43	0.501	–	–	–	–	–
NCI-H1623	0.497	0.509	0.484	0.514	0.389	–	–	–	–	–	–	–	–	–	–	–	–	–	–	–
SW 900	0.705	0.576	0.768	0.463	0.475	–	–	0.894	0.935	0.644	0.92	1.12	0.958	1.34	1.07	–	–	–	–	–
NCI-H1648	0.266	0.244	0.247	0.208	0.257	0.799	0.81	0.626	1.1	0.933	–	0.979	–	1.08	0.478	–	–	–	–	–
IA-LM	–	–	–	–	–	0.818	0.834	0.846	0.765	0.72	0.835	0.944	0.991	0.819	0.774	0.547	0.691	0.725	0.642	0.198
A549	–	–	–	–	–	0.342	0.313	0.507	0.201	0.0946	0.299	0.238	0.271	0.282	0.158	0.61	0.588	0.184	0.251	0.0856
